The values below come from patent US9394561B2, “Cyclic peptide production” (National Research Council of Canada, priority 2011, dated 2016).

For experiment [1], the system named is Dianthus superbus PCY1-c1141. The experiment in a line: In vitro assay of recombinant Dianthus superbus PCY1-c1141 with presegetalin substrates, LC/MS. The class given is biochemical. An excerpt:
(§1) To test for activity of the homologues of S. vaccaria PCY1, two cDNAs encoding were cloned from Dianthus superbus (c250 and c1141 contigs) and one from Silene vulgaris (c150 contig) essentially as described for Saponaria vaccaria PCY1 in Example 2. These were named Dianthus superbus Pcy1-c250, Dianthus superbus Pcy1-c1141 and Silene vulgaris Pcy1-c150, Briefly, gene specific forward and reverse primers were used to PCR amplify the aforementioned contigs based on homologue identification in EST collections from Dianthus leaves and Silene roots. The Dianthus superbus (c250 and c1141 contigs) and Silene vulgaris (c150 contig) PCY1 homologues were assayed with 15 μg/mL presegetalin A1[14,32] in vitro as previously described for semi-purified plant extracts to determine whether they can catalyze the production of segetalin A from presegetalin A1[14,32]. The assays were initiated by the addition of 120 ng (c250), or 138 ng (c1141) purified recombinant Dianthus superbus or 4 μg Silene vulgaris Pcy1 respectively, in a total reaction volume of 100 μL. […] Thus, there are additional enzymes in the Caryophyllaceae family, which have the same enzymatic activity as S. vaccaria PCY1.
Seven mutant peptides containing D-amino acids were synthesized (No. 26 to 32 in Table 3) and tested with S. vaccaria PCY1 under optimized in vitro conditions. In initial experiments, each amino acid corresponding to segetalin A was substituted with its D-amino acid consecutively from position 15 to 19 (No. 26 to 30). Glycine at position 14 is achiral and no substitution was required. […] To test this possibility two peptides were synthesized No. 31 and No. 32 in Table 3. […] The cyclic peptides were detected as diagnostic ions (M+H)^+ and (M+Na)^+ in LC/MS and their presence was further confirmed by MS/MS analysis. […] The cyclic peptide produced from No. 32 has alternating D- and L-forms of amino acids (with the exception of the glycine), which gives it the potential to self-assemble into nanotube under appropriate conditions (Gadhiri 1993).

Experiment [2] has as its system Dianthus superbus PCY1-c250. In words: In vitro assay of recombinant Dianthus superbus PCY1-c250 with presegetalin substrates, LC/MS. It is filed as biochemical.
Excerpt: as §1
Dianthus superbus PCY1-c250 was also assayed with the alanine scan mutants and the activities were compared with those of S. vaccaria PCY1.

Another experiment concerns S. vaccaria PCY1. In words: In vitro assay of recombinant S. vaccaria PCY1 with wild type and mutant presegetalin substrates, products detected by LC/MS. It is filed as biochemical, Saponaria vaccaria. Particulars: LC/MS and MS/MS. The method, then:
The gene corresponding to S. vaccaria PCY1 was cloned and expressed in E. coli with a His-tag. HisPur Cobalt Resin™ (Thermo Scientific) was used for purification of recombinant PCY1. The purified PCY1 was quantified using BCA method (Pierce; http://http://www.piercenet.com/) with BSA as a calibration standard. The in vitro assay contained 20 mM Tris buffer (pH 8.5), 100 mM NaCl, 5 mM DTT, 0.2 mg BSA, and 1.5 μg of substrates (wild type and mutant presegetalins, procured from Bio Basic Inc with >90% purity) and was initiated by the addition of 0.3 μg of PCY1, in a total reaction volume of 100 μl. The assay was incubated at 30° C. for up to 1 h and stopped by placing reactions in dry ice. The assays were lyophilized, re-suspended in methanol, evaporated and re-suspended in 50:50 v/v methanol/water for LC/MS analysis.
Ion trap ESI+ LC/MS/MS analysis was used to detect production of cyclic peptides using an Agilent 6320 Ion Trap LC/MS system under default Smart Parameter settings. The analyzer and ion optics were adjusted to achieve proper resolution (Agilent Installation Guide #G2440-90105) using the ESI Tuning Mix (Agilent #G2431A). The mass spectrometer scanned from 50 to 2200 mass units at 8100 mass units sec^−1 with an expected peak width of 0.35 atomic mass units. For auto MS/MS, the trap isolation width was 4 atomic mass units. The associated Agilent 1200 LC was fitted with a Zorbax 300 EXTEND-C18 column (150×2.1 mm, 3.5 μm particle size) maintained at 35° C. The binary solvent system consisted of 90:10 v/v water/acetonitrile containing 0.1% formic acid and 0.1% ammonium formate (solvent A) and 10:90 v/v water/acetonitrile containing 0.1% formic acid and 0.1% ammonium formate (solvent B). The separation gradient was 90:10 A/B to 50:50 A/B in 3 ml over 20 min.
In order to characterize substrate specificity of PCY1 and understand the segetalin A biosynthetic mechanism, a total of 44 substrates (Table 3) were tested for the PCY1 activity and the results are briefly summarized in Table 3. The last two columns in Table 3 summarize product type detected by LC/MS after in vitro assays (CP is cyclic peptide and LP is linear peptide, +=presence, −=absence, NA=not applicable). The 44 substrates were classified as follows: • (A) Presegetalin A1 [14,32], a wild type (WT) precursor of segetalin A • (B) Truncated mutants of presegetalin A1[14,32] • (C) Alanine scanning mutants corresponding to variants of the mature segetalin A sequence • (D) Alanine scanning mutants of the C-terminal region of presegetalin A1[14,32] • (E) D-amino acid mutants corresponding to variants of the mature segetalin A sequence • (F) Insertion mutants corresponding to variants of the mature segetalin A sequence • (G) Other A-class and F-class presegetalins • (H) Putative cyclic peptide precursors from Dianthus caryophyllus

Experiment [3] relates to Silene vulgaris Pcy1-c150. In words: In vitro assay of recombinant Silene vulgaris PCY1-c150 with presegetalin A1[14,32], LC/MS. The class given is biochemical. As to conditions: 15 μg/mL presegetalin A1[14,32], 4 μg enzyme.
Excerpt: as §1

Sequence of S. vaccaria PCY1 (as listed by the source): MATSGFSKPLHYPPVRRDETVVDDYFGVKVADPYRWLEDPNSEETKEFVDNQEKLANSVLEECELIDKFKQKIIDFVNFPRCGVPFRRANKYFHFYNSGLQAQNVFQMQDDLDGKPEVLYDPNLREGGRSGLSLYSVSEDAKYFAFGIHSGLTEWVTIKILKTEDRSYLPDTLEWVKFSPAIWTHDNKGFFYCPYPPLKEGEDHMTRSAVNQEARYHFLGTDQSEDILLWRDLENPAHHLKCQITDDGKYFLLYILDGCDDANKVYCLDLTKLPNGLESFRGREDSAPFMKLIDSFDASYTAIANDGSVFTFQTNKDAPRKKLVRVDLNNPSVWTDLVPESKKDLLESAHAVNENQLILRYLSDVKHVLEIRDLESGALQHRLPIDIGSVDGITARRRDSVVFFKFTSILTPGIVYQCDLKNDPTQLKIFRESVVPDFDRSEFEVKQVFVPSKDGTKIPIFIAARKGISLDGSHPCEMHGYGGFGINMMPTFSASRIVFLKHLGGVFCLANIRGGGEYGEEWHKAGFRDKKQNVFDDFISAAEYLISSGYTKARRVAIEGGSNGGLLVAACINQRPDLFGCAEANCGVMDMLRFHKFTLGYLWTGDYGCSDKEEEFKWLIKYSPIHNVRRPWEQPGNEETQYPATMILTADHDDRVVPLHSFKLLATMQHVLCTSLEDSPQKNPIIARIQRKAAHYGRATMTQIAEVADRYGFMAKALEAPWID
Sequence of Dianthus superbus PCY1-c1141 (as listed by the source): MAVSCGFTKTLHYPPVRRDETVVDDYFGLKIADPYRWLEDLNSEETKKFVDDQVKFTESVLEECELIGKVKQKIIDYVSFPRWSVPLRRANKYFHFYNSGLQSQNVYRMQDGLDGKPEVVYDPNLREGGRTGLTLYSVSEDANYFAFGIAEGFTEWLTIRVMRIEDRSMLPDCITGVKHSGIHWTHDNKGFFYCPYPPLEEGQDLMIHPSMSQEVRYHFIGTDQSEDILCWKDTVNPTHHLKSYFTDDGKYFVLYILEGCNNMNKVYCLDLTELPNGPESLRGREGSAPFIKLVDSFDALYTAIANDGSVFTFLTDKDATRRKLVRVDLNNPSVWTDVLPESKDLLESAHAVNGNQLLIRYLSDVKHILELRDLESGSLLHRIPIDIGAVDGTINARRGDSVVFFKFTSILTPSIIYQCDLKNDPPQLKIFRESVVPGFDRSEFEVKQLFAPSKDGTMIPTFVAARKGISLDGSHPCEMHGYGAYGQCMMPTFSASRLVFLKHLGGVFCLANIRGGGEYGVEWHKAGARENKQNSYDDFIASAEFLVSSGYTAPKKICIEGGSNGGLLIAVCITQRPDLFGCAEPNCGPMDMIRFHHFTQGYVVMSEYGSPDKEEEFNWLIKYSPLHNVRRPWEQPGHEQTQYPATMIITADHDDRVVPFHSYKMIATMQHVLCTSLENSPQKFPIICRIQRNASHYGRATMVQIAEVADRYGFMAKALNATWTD
Sequence of Dianthus superbus PCY1-c250 (as listed by the source): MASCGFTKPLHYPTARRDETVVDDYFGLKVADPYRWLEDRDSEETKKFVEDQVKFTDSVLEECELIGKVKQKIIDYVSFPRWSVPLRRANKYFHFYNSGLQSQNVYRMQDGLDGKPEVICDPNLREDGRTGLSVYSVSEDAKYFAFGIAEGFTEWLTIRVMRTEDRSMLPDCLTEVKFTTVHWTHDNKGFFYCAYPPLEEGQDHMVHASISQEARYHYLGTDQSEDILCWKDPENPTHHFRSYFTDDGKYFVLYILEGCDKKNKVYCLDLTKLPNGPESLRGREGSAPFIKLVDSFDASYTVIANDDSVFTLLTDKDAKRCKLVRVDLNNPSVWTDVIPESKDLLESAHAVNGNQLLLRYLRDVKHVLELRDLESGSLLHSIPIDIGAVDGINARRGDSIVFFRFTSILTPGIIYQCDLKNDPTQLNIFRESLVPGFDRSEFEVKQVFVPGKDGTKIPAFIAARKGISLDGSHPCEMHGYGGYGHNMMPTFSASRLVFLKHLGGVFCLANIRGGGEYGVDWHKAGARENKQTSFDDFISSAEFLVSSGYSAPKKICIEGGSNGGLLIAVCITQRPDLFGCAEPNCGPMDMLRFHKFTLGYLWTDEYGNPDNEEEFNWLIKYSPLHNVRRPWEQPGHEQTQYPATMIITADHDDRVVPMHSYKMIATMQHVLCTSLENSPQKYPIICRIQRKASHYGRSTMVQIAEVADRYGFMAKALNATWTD
Sequence of Silene vulgaris Pcy1-c150 (as listed by the source): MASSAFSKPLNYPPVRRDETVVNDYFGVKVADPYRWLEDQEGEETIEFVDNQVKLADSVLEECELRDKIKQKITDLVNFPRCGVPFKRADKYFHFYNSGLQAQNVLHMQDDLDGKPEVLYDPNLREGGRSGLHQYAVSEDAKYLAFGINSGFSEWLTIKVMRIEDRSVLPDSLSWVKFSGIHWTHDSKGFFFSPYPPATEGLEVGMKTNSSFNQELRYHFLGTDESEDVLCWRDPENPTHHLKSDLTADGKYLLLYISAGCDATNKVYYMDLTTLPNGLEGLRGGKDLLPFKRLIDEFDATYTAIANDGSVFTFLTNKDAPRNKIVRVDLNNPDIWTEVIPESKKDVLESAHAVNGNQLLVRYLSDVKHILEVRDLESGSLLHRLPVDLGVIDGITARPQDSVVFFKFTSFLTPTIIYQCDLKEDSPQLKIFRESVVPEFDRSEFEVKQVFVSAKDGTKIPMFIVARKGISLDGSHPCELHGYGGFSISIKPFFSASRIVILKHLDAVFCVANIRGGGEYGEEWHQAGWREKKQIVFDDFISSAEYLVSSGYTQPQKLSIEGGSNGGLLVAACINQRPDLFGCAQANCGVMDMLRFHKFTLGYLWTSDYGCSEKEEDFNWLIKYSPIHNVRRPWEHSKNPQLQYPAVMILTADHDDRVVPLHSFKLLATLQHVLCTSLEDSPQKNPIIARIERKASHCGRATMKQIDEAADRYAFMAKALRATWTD

“Presegetalin A1[14,32] (GVPVWAFQAKDVENASAPV; listed as Saponaria vaccaria) [No. 1]”: the “cyclic peptide production by D. superbus PCY1-c1141 (in words)” value in experiment [1] is reported as “strong enzymatic activity”. The “cyclic peptide production by D. superbus PCY1-c250 (in words)” value in experiment [2] was “strong enzymatic activity”. Besides, in the experiment with S. vaccaria PCY1, the “cyclic peptide production by S. vaccaria PCY1 (in words)” value is “showed the formation of segetalin A” and the “linear peptide production by S. vaccaria PCY1 (in words)” value is on record as “linear segetalin A”. For the same substance, the “production of segetalin A by Silene vulgaris c150 polypeptide (in words)” value in experiment [3] was “weaker than that of S. vaccaria PCY1”.
